Measured values from ChEMBL document CHEMBL3885861, “Open TG-GATES”.

Species on record: Rattus norvegicus
Test: Open TG-GATES - Regimen: Single
Type: toxicity, organism-based, Sprague-Dawley
Design: regimen Single, gender Male, age 6 weeks
Details: in vivo, iv, 0 mg/kg, route intravenous injection, dose level Control; for APTT / Bas / Eos / Fbg / Hb / Ht / Lym / MCH / MCHC / MCV / Mono / PT / Plat / RBC / Ret / WBC: tissue Blood; for KIDNEY_L / KIDNEY_R / KIDNEY_TOTAL: tissue Kidney; for LIVER: tissue Liver; for ALP / ALT / AST / BUN / CRE / Ca / Cl / DBIL / GLC / IP / K / LDH / Na / PL / RALB / TBIL / TC / TG / TP / gamma-GTP: tissue Plasma

CC(=O)OCC1=C(C(=O)O)N2C(=O)[C@@H](NC(=O)Cc3cccs3)[C@H]2SC1 [CEPHALOTHIN]
TERMINAL_BW (3 h): 214.5 g | APTT (3 h): 22.3 s | Bas (3 h): 0% | Eos (3 h): 0.8% | Fbg (3 h): 274.6 mg/dL | Hb (3 h): 13.2 g/dL | Ht (3 h): 38.5% | Lym (3 h): 80% | MCH (3 h): 20.9 pg | MCHC (3 h): 34.2% | MCV (3 h): 61.2 fL | Mono (3 h): 2.8% | PT (3 h): 16.5 s | Plat (3 h): 124.3 x10_4/uL | RBC (3 h): 629.6 x10_4/ul | Ret (3 h): 6.1% | WBC (3 h): 84.8 x10_2/uL | KIDNEY_L (3 h): 1 g | KIDNEY_R (3 h): 1 g | KIDNEY_TOTAL (3 h): 2 g | LIVER (3 h): 10.2 g | ALP (3 h): 1573.2 IU/L | ALT (3 h): 46.4 IU/L | AST (3 h): 85.6 IU/L | BUN (3 h): 12.4 mg/dL | CRE (3 h): 0.2 mg/dL | Ca (3 h): 10.5 mg/dL | Cl (3 h): 107.4 meq/L | DBIL (3 h): 0 mg/dL | GLC (3 h): 176.2 mg/dL | IP (3 h): 7.6 mg/dL | K (3 h): 4.3 meq/L | LDH (3 h): 171.6 IU/L | Na (3 h): 142 meq/L | PL (3 h): 117.2 mg/dL | RALB (3 h): 2.8 g/dL | TBIL (3 h): 0.016 mg/dL | TC (3 h): 60.8 mg/dL | TG (3 h): 69.2 mg/dL | TP (3 h): 5.1 g/dL | gamma-GTP (3 h): 1 IU/L | TERMINAL_BW (6 h): 214.9 g | APTT (6 h): 22.2 s | Bas (6 h): 0% | Eos (6 h): 0.8% | Fbg (6 h): 279.4 mg/dL | Hb (6 h): 13.1 g/dL | Ht (6 h): 38.1% | Lym (6 h): 74.2% | MCH (6 h): 21.1 pg | MCHC (6 h): 34.3% | MCV (6 h): 61.7 fL | Mono (6 h): 2.4% | PT (6 h): 16.2 s | Plat (6 h): 129.1 x10_4/uL | RBC (6 h): 618.8 x10_4/ul | Ret (6 h): 6.4% | WBC (6 h): 81.7 x10_2/uL | KIDNEY_L (6 h): 1 g | KIDNEY_R (6 h): 1 g | KIDNEY_TOTAL (6 h): 2 g | LIVER (6 h): 9.1 g | ALP (6 h): 1313 IU/L | ALT (6 h): 41.6 IU/L | AST (6 h): 80 IU/L | BUN (6 h): 9.2 mg/dL | CRE (6 h): 0.2 mg/dL | Ca (6 h): 10.2 mg/dL | Cl (6 h): 105.4 meq/L | DBIL (6 h): 0.002 mg/dL | GLC (6 h): 184.8 mg/dL | IP (6 h): 9.3 mg/dL | K (6 h): 4.3 meq/L | LDH (6 h): 176.2 IU/L | Na (6 h): 141.4 meq/L | PL (6 h): 122 mg/dL | RALB (6 h): 2.8 g/dL | TBIL (6 h): 0.02 mg/dL | TC (6 h): 67.8 mg/dL | TG (6 h): 41 mg/dL | TP (6 h): 5.1 g/dL | gamma-GTP (6 h): 1.4 IU/L | TERMINAL_BW (9 h): 217.3 g | APTT (9 h): 23.9 s | Bas (9 h): 0% | Eos (9 h): 1% | Fbg (9 h): 305.4 mg/dL | Hb (9 h): 13.5 g/dL | Ht (9 h): 39.5% | Lym (9 h): 81.4% | MCH (9 h): 21 pg | MCHC (9 h): 34% | MCV (9 h): 61.6 fL | Mono (9 h): 2% | PT (9 h): 15.7 s | Plat (9 h): 132.6 x10_4/uL | RBC (9 h): 641.6 x10_4/ul | Ret (9 h): 6.4% | WBC (9 h): 93.1 x10_2/uL | KIDNEY_L (9 h): 0.9 g | KIDNEY_R (9 h): 1 g | KIDNEY_TOTAL (9 h): 1.9 g | LIVER (9 h): 9 g | ALP (9 h): 1321.4 IU/L | ALT (9 h): 37.2 IU/L | AST (9 h): 81.2 IU/L | BUN (9 h): 9.2 mg/dL | CRE (9 h): 0.2 mg/dL | Ca (9 h): 10.4 mg/dL | Cl (9 h): 106.2 meq/L | DBIL (9 h): 0 mg/dL | GLC (9 h): 186.6 mg/dL | IP (9 h): 9.6 mg/dL | K (9 h): 4.3 meq/L | LDH (9 h): 157.4 IU/L | Na (9 h): 141.6 meq/L | PL (9 h): 121.8 mg/dL | RALB (9 h): 2.9 g/dL | TBIL (9 h): 0.022 mg/dL | TC (9 h): 67.4 mg/dL | TG (9 h): 60 mg/dL | TP (9 h): 5.3 g/dL | gamma-GTP (9 h): 1.2 IU/L | TERMINAL_BW (24 h): 225.8 g | APTT (24 h): 21 s | Bas (24 h): 0% | Eos (24 h): 0.8% | Fbg (24 h): 302.4 mg/dL | Hb (24 h): 12.9 g/dL | Ht (24 h): 37.9% | Lym (24 h): 79.2% | MCH (24 h): 21.2 pg | MCHC (24 h): 33.9% | MCV (24 h): 62.3 fL | Mono (24 h): 2.4% | PT (24 h): 16.5 s | Plat (24 h): 128.1 x10_4/uL | RBC (24 h): 607.2 x10_4/ul | Ret (24 h): 6.3% | WBC (24 h): 89.6 x10_2/uL | KIDNEY_L (24 h): 1 g | KIDNEY_R (24 h): 1 g | KIDNEY_TOTAL (24 h): 1.9 g | LIVER (24 h): 10.8 g | ALP (24 h): 1398.6 IU/L | ALT (24 h): 44.4 IU/L | AST (24 h): 76.2 IU/L | BUN (24 h): 17.2 mg/dL | CRE (24 h): 0.2 mg/dL | Ca (24 h): 10.9 mg/dL | Cl (24 h): 105.8 meq/L | DBIL (24 h): 0 mg/dL | GLC (24 h): 189.4 mg/dL | IP (24 h): 7.3 mg/dL | K (24 h): 4.5 meq/L | LDH (24 h): 221 IU/L | Na (24 h): 142.4 meq/L | PL (24 h): 145.8 mg/dL | RALB (24 h): 3 g/dL | TBIL (24 h): 0.012 mg/dL | TC (24 h): 74.4 mg/dL | TG (24 h): 74.6 mg/dL | TP (24 h): 5.5 g/dL | gamma-GTP (24 h): 1.4 IU/L
